Values quoted from earlier work in US20230109626A1 (priority 2020, published 2023).

Settings: for solubility in water: at 20° C.

| Compound | solubility (temperature not given) | solubility in water [mg/100 mL] |
| --- | --- | --- |
| [H]/N=C(\N/C(=N/[H])NCCCCCCNC(=N)NC(=N)Nc1ccc(Cl)cc1)Nc1ccc(Cl)cc1 [Chlorhexidine] | about 80 mg/100 mL | 80 |
| N=C(NCCCCCCNC(=N)NC(=N)Nc1ccc(Cl)cc1)NC(=N)Nc1ccc(Cl)cc1.O=C(O)[C@H](O)[C@@H](O)[C@H](O)[C@H](O)CO.O=C(O)[C@H](O)[C@@H](O)[C@H](O)[C@H](O)CO [chlorhexidine gluconate] |  | ≥ 2100 |
